According to patent US7892830B2, “Clonal culture of human pluripotent stem cells” (Wisconsin Alumni Research Foundation, priority 2007, dated 2011):
Structures can show the parent of a compound that is named as a salt.

Tests used:
PKC = conditions: cited from earlier work
PKA = conditions: cited from earlier work
H1 human ES cells [1] = assay: 6-well cloning efficiency assay in TeSR1 medium on Matrigel, colonies counted manually; type: cell-based; conditions: for max. CE (%): cloning efficiency = CFU per number of plated single cells; for confirmation in 6-well assay as active in increasing cloning efficiency: 6-well plates, varying concentrations
Excerpt: As described above, a difficulty in growing pluripotent cells, like ES cells, in culture is their low cloning efficiency. As used herein, “cloning efficiency” means a number of cells individualized by trypsin that form new ES cell colonies divided by the number of individual cells plated in a well of a culture dish. In our prior experience with growing human ES cells in defined and animal-free conditions on a matrix (e.g., Matrigel®), cloning efficiency was very low (i.e., less than 0.1%). This contrasts with prior experience using culture systems based on medium conditioned by exposure to fibroblasts, where the cloning efficiency, while still low (i.e., less than 2%), was high enough to initiate clonal ES cell colonies. As disclosed herein, the addition of a small molecule to the culture medium in which human ES cells are grown permits the ES cell cultures to be clonally cultivated in a manner that is extremely difficult without the addition of the small molecule. Several small molecules are exemplified herein for this purpose.
For these assays, 10,000 cells per well were plated on Matrigel®—coated plates and then treated every other day for a total of four days. with the small molecules as described above. To evaluate the effect of the tested small molecules on cloning efficiency, we manually counted colonies after 10 days.
We determined cloning efficiency (CE; the number of colony forming units (CFU) per number of plated single cells, trypsin/EDTA treated). HA-100 was the first molecule identified in the small molecule screen, following which other structurally similar small molecules were also tested for cloning efficiency.

PKG = conditions: cited from earlier work
H1 human ES cells [2] = assay: Example 2 colony formation with ROCK inhibitors, ALP assay and examination by eye; type: cell-based; conditions: for concentration showing the most colony formation with the ALP assay: tested 5 nM to 20 μM, TeSR1, Matrigel
Description: The experiments described in Example 1 were repeated with H-1152 (EMD Chemicals, Inc./Calbiochem; San Diego, Calif.) and Y-27632 (EMD Chemicals, Inc./Calbiochem). Briefly, H-1152 or Y-27632 was dissolved in DMSO to a concentration of 20 mM. H1 human ES cells were grown on Matrigel®—coated plates in TeSR™1 medium at a density of 100,000 cells per ml. H-1152 and Y-27632 were added to wells on their own plates at a final concentration of 20 μM, 15 μM, 10 μM or 5 μM in DMSO. DMSO and HA-100 (10 μM) were used as the negative and positive controls, respectively. The plates were treated every other day for a total of four days. Colony formation was detected with the ALP assay described above.
In a second experiment, H-1152 and Y-27632 were added to wells on their own plates at a final concentration of 5 μM, 500 nM, 50 nM or 5 nM in DMSO. DMSO and HA-100 (10 μM) were used as the negative and positive controls, respectively. The plates were treated as described above.

human ES cells [3] = assay: Cloning efficiency in unconditioned medium with added bFGF; type: cell-based; conditions: unconditioned medium with 100 ng/μl bFGF, compared to control cultures lacking HA-100
Description: (§1) We have also tested these small molecules for effects on human ES cell cloning on other medium. We tested the effect on conditioned medium (CM) substituting TeSR™1 medium with CM and otherwise identical treatment. The cloning efficiency of the medium increased with addition of HA-100. In addition, we performed a similar test with unconditioned medium to which 100 ng/μl of bFGF had been added.

human ES cells [4] = assay: Cloning efficiency in conditioned medium (CM); type: cell-based; conditions: CM substituted for TeSR1, otherwise identical treatment
Description: as §1

Oct4 = Oct4 immunofluorescence of cloned colonies; type: cell-based, human; conditions: colonies from HA-100 treatment
Excerpt: We also tested the resulting colonies from HA-100 treatment for the presence of Oct4, an intracellular marker for pluripotent ES cells.

H1 human ES cells [5] = assay: Fluorometric high-throughput ALP (DiFMUP) screen for colony formation, 96-well; type: cell-based; conditions: 10 μM, 500 cells per well, TeSR1, a typical hit read above 200,000
Description: The screen was conducted using a fluorescent, high-throughput assay to screen small molecules for their ability to enhance cloning efficiency. A soluble, non-fluorescent substrate (6,8-difluoro-4-methylumbelliferyl phosphate, DiFMUP) was converted to a fluorescent product by an enzyme specific for undifferentiated, human ES cells called alkaline phosphatase (ALP).
In wells that had colonies larger than 2,000 cells, and which formed 12 days after seeding 500 individualized human ES cells in a 96-well plate, increased fluorescence from DiFMUP hydrolyzed by ALP indicated any well that contained a compound that enabled colony formation. […] Thus, this assay tested both for clonal propagation and for maintenance of undifferentiated status.
The screen used a small molecule library made up of characterized compounds with known bioactivity that was purchased from Sigma-Aldrich (St. Louis, Mo.). Members of the library were dissolved in DMSO to a concentration of 1 mM. All other chemicals used were purchased from Sigma, unless otherwise indicated in the text. H1 human ES cells (WiCell Research Institute; Madison, Wis.) were grown in the defined TeSR™1 medium, which was prepared as described in Ludwig et al., supra.
The assay was performed at the Keck-UWCCC Small Molecule Screening Facility (University of Wisconsin—Madison; Madison, Wis.) in 96-well microplates (Nunclon/Nunc; Roskilde, Denmark) using a Beckman Biomek® FX Laboratory Workstation and a Perkin Elmer VictorIII® Plate Reader. The microplates were coated with Matrigel® (#354230, growth factor reduced; BD Bioscience; San Jose, Calif.) at 0.3 mg/ml in DMEM/F12 (Invitrogen; Carlsbad, Calif.) for 1 hour at room temperature.
H1 human ES cells were grown in 6-well Nunclon® dishes to day 5, and then treated with 1 ml Trypsin/EDTA (Invitrogen) containing 1% chick serum for 5 minutes at 37° C. Trypsin was quenched with 20% FBS in DMEM/F12, and the cells were collected by centrifugation for 1.5 minutes at 200 RCF. After aspiration of the medium, cells were re-suspended in TeSR™1 medium to a density of 5,000 cells per ml. Of this cell suspension, 100 μL was dispensed into each well, and 1 μL of a […] DMSO solution of inhibitor was added and mixed by pipetting, resulting in a final inhibitor concentration of 10 μM. The plates were incubated at 5% CO2 at 37° C. for 2 days. Then, the medium was exchanged with TeSR™1 medium not having the cloning molecule. […]
To detect colony formation, we used a fluorometric, ALP assay (EnzChek®; Invitrogen). […] In wells that had colonies, increased fluorescence indicated any well containing a compound that led to colony formation. […] Plates were read by a multi-plate reader (excitation 355 nm, emission 455 nm, at 0.1 ms emission intervals).

ROCK1/ROCK2 = conditions: read-out: IC50 ROCK1/ROCK2; competing with ATP; cited from earlier work

Compound	IC50 (PKC) [µM]	IC50 (PKA) [µM]	max. CE (%) (H1 human ES cells [1]; TeSR1, Matrigel)	IC50 (PKG) [µM]	confirmation in 6-well assay as active in increasing cloning efficiency (H1 human ES cells [1])	result of small molecule screen (colony formation, ALP fluorescence) (H1 human ES cells [5])	other results
CC1CNCCN1S(=O)(=O)c1cccc2cnccc12 (centres unmarked) [H-7, 1-(5-isoquinolinesulfonyl)-2-methylpiperazine]	6	3	<1	5.8	–	–	–
O=S(=O)(NCCNC/C=C/c1ccc(Br)cc1)c1cccc2cnccc12 [H-89, N-[2-p-bromo-cinnamylamino)ethyl]-5-isoquinolinesulfonamide dihydrochloride]	31.7	–	2.5	0.48	–	–	–
Cc1cncc2cccc(S(=O)(=O)N3CCCNC[C@@H]3C)c12 [H-1152, (S)-(+)-2-methyl-1-[(4-methyl-5-isoquinolinyl)sulfonyl]homopiperazine dihydrochloride]	–	–	–	–	–	–	colony formation by eye compared with HA-100 (at 10 μM) (H1 human ES cells [2]; concentrations above 500 nM): equal or better than HA-100; working concentration compared with HA-100 (H1 human ES cells [2]; facilitating clonal growth): ten times lower; concentration showing the most colony formation with the ALP assay (H1 human ES cells [2]): 500 nM
O=S(=O)(c1cccc2cnccc12)N1CCNCC1 [HA-100, 1-(5-isoquinolinesulfonyl)piperazine hydrochloride]	12	8	2	4	confirmed	hits	effect on cloning efficiency in unconditioned medium (human ES cells [3]): increased cloning efficiency; effect on cloning efficiency in conditioned medium (human ES cells [4]): increased; Oct4 expression in cloned colonies (immunofluorescence) (Oct4): maintenance of Oct4 expression
Cl.N=C(N)NCCNS(=O)(=O)c1cccc2cnccc12 [HA-1004, N-(2-guanidinoethyl)-5-isoquinolinesulfonamide hydrochloride]	40	2.3	<1	1.3	–	–	CFU+ (concentration range with colony forming units) (H1 human ES cells [1]; 6-well plates, 10,000 cells per well, TeSR1, Matrigel, colonies counted after 10 days): >50.0 µM
Cl.Cl.O=S(=O)(c1cccc2cnccc12)N1CCCNCC1 [HA-1077, 1-(5-isoquinolinesulfonyl)homopiperazine dihydrochloride]	–	–	–	–	–	–	effect on cloning efficiency of human ES cells (H1 human ES cells [1]; related small molecules tested after HA-100): increased cloning efficiency
C[C@@H](N)[C@H]1CC[C@H](C(=O)Nc2ccncc2)CC1 [Y-27632, (+)-(R)-trans-4-(1-aminoethyl)-N-(4-pyridyl)cyclohexanecarboxamide dihydrochloride]	–	–	–	–	–	–	colony formation by eye compared with HA-100 (at 10 μM) (H1 human ES cells [2]; concentrations above 5 μM): equal or better than HA-100; concentration showing the most colony formation with the ALP assay (H1 human ES cells [2]): 5000 nM; IC50 (ROCK1/ROCK2): 0.8 µM
CC1CN(S(=O)(=O)c2cccc3cnccc23)CCN1 (centres unmarked) [iso H-7, 1-(5-isoquinolinesulfonyl)-3-methylpiperazine]	> 6	> 3	<1	> 5.8	–	–	–
CC(C)CCC[C@@H](C)[C@H]1CC[C@H]2C3=CC[C@H]4C[C@@H](O)CC[C@]4(C)[C@H]3CC[C@]12C [lathosterol]	–	–	–	–	only HA-100 could be confirmed	hits	–
CC1(C)OC(=O)C=CC2(C)C1CC(O)C1(C)C2CCC2(C)C(c3ccoc3)OC(=O)C3OC321 (centres unmarked) [obacunol]	–	–	–	–	only HA-100 could be confirmed	hits	–
quipazine dimaleate	–	–	–	–	only HA-100 could be confirmed	hits	–
